Assay results as given in patent US8946407B2, “Fructosylated mangiferin and preparation method therefor and use thereof” (priority 2011, dated 2015).

Key:
[1] = system: Human chronic myelogenous leukemia cell strain K562; test: K562 cell toxicity test (MTT method); assay type: cell-based; conditions: for Average suppression rate (%) / OD value: 48 h; for Average suppression rate (%): K562; for OD value: K562, A490 MTT
Experimental: Human chronic myelogenous leukemia cell strain K562, purchased from the cell bank of Shanghai Cell Research Institute of Chinese Academy of Sciences; mangiferin, purchased from Nanjing Zelang Medical Science and Technology Co., Ltd.; monofructosyl-β (2,6)-mangiferin is prepared with the method described in this invention, with purity over 99% as determined by high performance liquid chromatography. Drug liquid and its storage: weigh 8.44 mg mangiferin powder and dissolve it in 2 mL DMSO to prepare it into 10 mmol/L mangiferin; weigh 11.68 mg monofructosyl-β (2,6)-mangiferin powder and dissolve it in 2 mL DMSO to prepare it into 10 mmol/L monofructosyl-β (2,6)-mangiferin; they are filtered with a 0.22 μm filter, packed in 1000 μL/doff and stored at −20° C., meanwhile, high concentration DMSO is filtered with a 0.22 μm filter for use as control. The K-562 cells are cultured in RPMI-1640 complete culture medium containing inactivated calf serum at volume fraction of 10%, 100 U penicillin and streptomycin, in an incubating box at 37° C., with 5% CO2 and at saturated humidity. Take K-562 cells in logarithmic growing phase, adjust its concentration to 1×10^5/mL, and inoculate them in a 96-hole culture plate, each hole with 90 μL of suspended cell liquid, the experimental group is treated with mangiferin and monofructosyl-β (2,6)-mangiferin at different end concentration (1, 5, 10, 20, 50, 100, 150 and 200 μmol/L), with 10 μL in each hole, the DMSO solvent control group is added with 20 μL PBS containing the corresponding drug solvent, and the blank group is added with 20 μL PBS. For each drug concentration, 6 repeating holes are provided. The culture plate is put back into the cell culture box, add 20 μL MTT (5 mg/mL) solution after 48 h, and after further incubation of 4 h in the culture box, add triple liquid 100 μL into each hole, put it still overnight to allow full dissolution of crystal. Vibrate it with oscillator for 20 min and determine the light absorption at 490 nm with a fully automatic ELISA instrument, and calculate the average suppression rate, the suppression rate (%)=(control group A490−test group A490)/control group A490), the experiment was repeated three times. Relevant analysis and Student t tests in Microsoft Excel 2003 were used, and data are presented in.

dissolvability at 25° C. = assay type: physicochemical
Experimental: As determined, at 25° C., the dissolvability of monofructosyl-β-(2,6)-mangiferin is 350 g/L, and that of bifructosyl-β-(2,6)-mangiferin is 1200 g/L, respectively 3.5×103 times and 1.2×104 times that of mangiferin (0.1 g/L) under the same condition.

Compound | Average suppression rate (%) ([1]; 1 μmol/L) | OD value ([1]; 1 μmol/L) | Average suppression rate (%) ([1]; 5 μmol/L) | OD value ([1]; 5 μmol/L) | Average suppression rate (%) ([1]; 10 μmol/L) | OD value ([1]; 10 μmol/L) | Average suppression rate (%) ([1]; 20 μmol/L) | OD value ([1]; 20 μmol/L) | Average suppression rate (%) ([1]; 50 μmol/L) | OD value ([1]; 50 μmol/L) | Average suppression rate (%) ([1]; 100 μmol/L) | OD value ([1]; 100 μmol/L) | Average suppression rate (%) ([1]; 150 μmol/L) | OD value ([1]; 150 μmol/L) | Average suppression rate (%) ([1]; 200 μmol/L) | OD value ([1]; 200 μmol/L) | dissolvability (dissolvability at 25° C.) | effect on K562 cell proliferation (in words) ([1]; after acting for 48 h, MTT method)
O=c1c2cc(O)c(O)cc2oc2cc(O)c([C@@H]3O[C@H](CO)[C@@H](O)[C@H](O)[C@H]3O)c(O)c12 [mangiferin] | 7.74% | 0.952 ± 0.034 | 8.39% | 0.945 ± 0.041 | 10.75% | 0.921 ± 0.036 | 3.52% | 0.995 ± 0.086 | −3.9% | 1.096 ± 0.143 | −16.08% | 1.198 ± 0.048 | −10.61% | 1.141 ± 0.049 | −14.56% | 1.182 ± 0.175 |  | 
monofructosyl-β-(2,6)-mangiferin | 4.53% | 0.982 ± 0.039 | 8.79% | 0.938 ± 0.102 | 8.19% | 0.944 ± 0.053 | 8.56% | 0.941 ± 0.040 | 8.87% | 0.938 ± 0.041 | 23.19% | 0.790 ± 0.098 | 36.53% | 0.653 ± 0.026 | 41.48% | 0.602 ± 0.021 | 350 g/L | can markedly suppress the proliferation
bifructosyl-β-(2,6)-mangiferin |  |  |  |  |  |  |  |  |  |  |  |  |  |  |  |  | 1200 g/L | 
